Reference: EP0558673B1, “RETROVIRAL PROTEASE INHIBITORS” (MONSANTO COMPANY, priority 1990, dated 1992)

Experiments:
[1] = target: T1, HIV protease (Human immunodeficiency virus type 1 group M subtype B, UniProt P04585); experiment: HIV protease enzyme assay (fluorescence, substrate 2-aminobenzoyl-Ile-Nle-Phe(p-NO₂)-Gln-ArgNH₂); format: biochemical; details: Table 16; enzyme 12.3 nanomolar, substrate 80 µM, pH 6.4, ambient temperature; read-out: IC₅₀
T1 construct: final enzyme concentration of 12.3 nanomolar, based on a molecular weight of 10,780
From the text: The compounds of the present invention are effective HIV protease inhibitors. Utilizing an enzyme assay as described below, the compounds set forth in the examples herein disclosed inhibited the HIV enzyme. The preferred compounds of the present invention and their calculated IC₅₀ (inhibiting concentration 50%, i.e., the concentration at which the inhibitor compound reduces enzyme activity by 50%) values are shown in Table 16. The enzyme method is described below. The substrate is 2-aminobenzoyl-Ile-Nle-Phe(p-NO₂)-Gln-ArgNH₂. The positive control is MVT-101 (Miller, M. et al, Science, 246, 1149 (1989)] The assay conditions are as follows: Assay buffer: 20 mM sodium phosphate, pH 6.4 20% glycerol 1 mM EDTA 1 mM DTT 0.1% CHAPS
The above described substrate is dissolved in DMSO, then diluted 10 fold in assay buffer. Final substrate concentration in the assay is 80 µM.
HIV protease is diluted in the assay buffer to a final enzyme concentration of 12.3 nanomolar, based on a molecular weight of 10,780.
The final concentration of DMSO is 14% and the final concentration of glycerol is 18%. The test compound is dissolved in DMSO and diluted in DMSO to 10x the test concentration; 10µl of the enzyme preparation is added, the materials mixed and then the mixture is incubated at ambient temperature for 15 minutes. The enzyme reaction is initiated by the addition of 40µl of substrate. The increase in fluorescence is monitored at 4 time points (0, 8, 16 and 24 minutes) at ambient temperature. Each assay is carried out in duplicate wells.

[2] = test system: HIV-1; experiment: CEM cell assay: HIV inhibition assay of acutely infected cells (tetrazolium/MTT colorimetric); format: cell-based; details: Human immunodeficiency virus 1, CCRF-CEM, 168 h; Table 17; CEM cells acutely infected with HIV-1, 7 days, MTT readout; read-out: EC₅₀
Description: The effectiveness of the compounds listed in Table 16 were determined in the above-described enzyme assay and in a CEM cell assay.
Methods 20, 309-321 (1988).

Compound: CC(C)CCN(C[C@@H](O)[C@H](Cc1ccccc1)NC(=O)[C@@H](NS(=O)(=O)CCc1ccccc1)C(C)(C)C)C(=O)NC(C)(C)C (relative stereo) [Compound 1, 3-Thia-4,7,11-triazadodecan-12-amide, N,5-bis(1,1-dimethylethyl)-9-hydroxy-11-(3-methylbutyl)-6-oxo-8-(phenylmethyl)-1-phenyl-, 2,2-dioxide-,5S-,(5R*,8R*,9S*)]]
- IC50 [1]: 22 nM
- EC50 [2]: 510 nM

Compound: CC(C)CCN(C[C@@H](O)[C@H](Cc1ccccc1)NC(=O)[C@H](CC(N)=O)NS(=O)(=O)CCc1ccccc1)C(=O)NC(C)(C)C (relative stereo) [Compound 3, 3-Thia-4,7,11-triazadodecan-12-amide, N-(1,1-dimethylethyl)-5-(2-amino-2-oxo-ethyl)-9-hydroxy-11-(3-methylbutyl)-6-oxo-8-(phenylmethyl)-1-phenyl-, 2,2-dioxide-,[5S-,(5R*,8R*,9S*)]]
- IC50 [1]: 24 nM

Compound: CC(C)CCN(C[C@@H](O)[C@H](Cc1ccccc1)NC(=O)[C@@H](NS(=O)(=O)CCc1ccccc1)C(C)C)C(=O)NC(C)(C)C (relative stereo) [Compound 2, 3-Thia-4,7,11-triazadodecan-12-amide, N-(1,1-dimethylethyl)-5-(1-methylethyl)-9-hydroxy-11-(3-methylbutyl)-6-oxo-8-(phenylmethyl)-1-phenyl-, 2,2-dioxide-,[5S-,(5R*,8R*,9S*)]]
- IC50 [1]: 29 nM
- EC50 [2]: 440 nM
